In US8278359B2, “Compositions containing amines and use thereof to treat acne or reduce the appearance of oil or pores on the skin” (Johnson & Johnson Consumer Companies, Inc., priority 2005, dated 2012):
Like-named read-outs stand apart in the source and are kept apart here.

How the values were obtained:
tyrosinase [1] = test: Tyrosinase protein levels in B16 cells (Western blot, normalized to β-Actin); format: cell-based, murine; conditions: 20 μg/ml, PBS treated control = 1
Protocol: THPED was also tested for its ability to induce tyrosinase protein levels in B16 cells. B16 cells were treated with THPED at different concentrations at pH 7.2 for 48 hours and cells were then lysed in 250 μl of PBS containing 1% Triton X-100. B16 cell lysates containing 3.7 μg of protein (for tyrosinase protein analysis) and 1.2 μg of protein (for β-Actin protein analysis) were electrophoresed on 4-20% Tris-Glycine SDS PAGE minigels (Invitrogen, Carlsbad, Calif.), transferred onto PVDF membrane (Bio Rad, Hercules, Calif.), and probed with antibodies for Tyrosinase (1:200 in PBS+0.2% Tween 20+5% BSA, obtained from Santa Cruz Biotechnology, Inc., Santa Cruz, Calif.) and β-Actin (1:2000 in PBS+0.2% Tween 20+5% BSA, obtained from Sigma, St. Louis, Mo.). Protein expression of tyrosinase and β-Actin were analyzed using ECL reagent and Hyperfilm ECL obtained from Amersham (Piscataway, N.J.). The film was developed using a Konica SRX-101A Processor (East Orange, N.J.).
Tyrosinase protein level in untreated B16 cells was normalized to 1.

B16 cells = test: Induction of pigmentation in vitro, DOPA staining; format: cell-based, murine; conditions: 10 ug/ml, 48 hours
Protocol: THPED was tested for its effect on pigmentation, using melanocytes, DOPA staining and computerized image analysis. THPED was obtained from BASF (Florham Park, N.J.). THPED was dissolved in culture medium and pH was adjusted to neutral (pH 7.2). THPED was assayed at concentrations ranging from 0.05-0.01%.
B16 cells (a murine melanoma cell line) were obtained from American Type Culture Collection (Manassas, Va.). Cells were cultured in Dulbecco's Modified Eagle Medium (DMEM) containing 10% fetal bovine serum (FBS), 4.5 mg/ml glucose, 2 mM L-glutamine, sodium pyruvate, without phenol red (Invitrogen, Carlsbad, Calif.). B16 cells were plated on 12 well tissue culture plates (Corning Costar, San Diego, Calif.), at 40,000 cells per well in the above culture media. Cells were allowed to grow overnight and then treated with various concentrations of THPED at pH 7.2 for total 48 hours. Fresh media containing the experimental treatments were changed once daily.
At the end of the treatment, the cells were washed for 5 minutes, twice, in phosphate-buffered saline (PBS, from Life Technologies, Gaithersburg, Md.), then briefly fixed in 10% buffered formalin (from Sigma St. Louis, Mo.) for 10 minutes, washed three times with PBS and stained with 0.1% L-3,4-Dihydroxyphenylalanine (DOPA, from Sigma, St. Louis, Mo.) in PBS for 2-3 hours at 37° C., followed by three PBS washes. DOPA is a substrate for tyrosinase; therefore an increase in staining represents increased tyrosinase activity and pigment production. Images of DOPA-stained cells were taken using a Leica DMIL microscope (Bannockburn, Ill.) and an OPTRONICS DEI-750 digital camera (Goleta, Calif.). All images were obtained and analyzed with Image Pro Plus 4.0 software (Media Cybernetics, Silver Spring, Md.).
The pigment change was evaluated using the scale defined in Table XII.

tyrosinase [2] = test: Tyrosinase activity in lysates of treated B16 cells (DOPA, absorbance 490 nm); format: cell-based, murine; conditions: 10 μg/ml; B16 cells 48 hours; activity at 3-hours, normalized for total protein
Protocol: THPED was also tested for its ability to induce tyrosinase activity in B16 cells by spectroscopic measuring of the final product, melanin. B16 cells were treated with THPED at different concentrations at pH 7.2 for 48 hours and cells were then lysed in 250 μl of PBS containing 1% Triton X-100 (Sigma, St. Louis, Mo.). The lysates were collected and centrifuged at 14,000 rpm for 5 minutes at 4° C. to pellet any insoluble material. Lysates (100 μl) were transferred to a 96 well assay plate (Corning Costar, San Diego, Calif.) and mixed with 100 μl of 0.1% (w/v) DOPA in PBS. The absorbance at 490 nm was then monitored from 0 to 12 hours using a VersaMax Plate Spectrophotometer (Molecular Devices, Sunnyvale, Calif.) and SoftMax Pro analytical software (Molecular Devices, Sunnyvale, Calif.). The tyrosinase activities were normalized for total protein using the BioRad Dc Protein Assay (Bio Rad, Hercules, Calif.).

[3] = tested on: GM-CSF (granulocyte macrophage stimulating factor); test: PHA-stimulated peripheral blood lymphocyte cytokine release: GM-CSF; format: cell-based; conditions: Homo sapiens, read-out: GMCSF % inh.
Excerpt: (§1) The ability of various amines to affect the inflammatory responses was illustrated by its ability to reduce the production of cytokines by human lymphocytes stimulated with the T-cell receptor (TCR) activating agent phytohaemagglutinin (PHA) in the following assay.
(§2) Human leukocytes were collected from a healthy adult […] via leukopheresis, and adjusted to a density Of 1×10^6 cells/mL in serum free lymphocyte growth medium (ExVivo-15, Biowhittaker, Walkersville, Md.). PBLs were stimulated with 10 μg/mL PHA in the presence or absence of test samples following published methods (Hamamoto Y., et al. Exp Dermatol 2:231-235, 1993). The following compounds were evaluated N,N,N′,N′-Tetrakis(2-hydroxypropyl)ethylenediamine (THPED, available from BASF under the tradename “Quadrol” or “Neutrol”), N,N,N,N-Tetramethylethylenediamine (TEMED, available from Pfaltz & Bauer Chemicals (Waterbury, Conn.)), and Diethylenetriamine (available from Sigma-Aldrich) Following a 48 hour incubation at 37° C. with 5% CO2, the supernatant was removed and evaluated for cytokine content using commercially available multiplex cytokine detection kit.

IFN (interferon-gamma) = test: PHA-stimulated peripheral blood lymphocyte cytokine release: IFN; format: cell-based; conditions: Homo sapiens, read-out: IFN % inh.
Excerpt: as §1, §2

[4] = tested on: TNF (tissue necrosis factor-alpha); test: PHA-stimulated peripheral blood lymphocyte cytokine release: TNF; format: cell-based; conditions: Homo sapiens, read-out: TNF % inh.
Excerpt: as §1, §2

IL-2 (Interleukin-2) = test: PHA-stimulated peripheral blood lymphocyte cytokine release: IL-2; format: cell-based; conditions: Homo sapiens, read-out: IL-2 % inh.
Excerpt: as §1, §2

[5] = 10 μg/ml, 10 μg/mL PHA, 48 hour incubation
[6] = 100 μg/ml, 10 μg/mL PHA, 48 hour incubation

C=C[C@@]1(C)CC(=O)[C@]2(O)[C@@]3(C)[C@@H](O)CCC(C)(C)[C@@H]3[C@H](O)[C@H](OC(C)=O)[C@@]2(C)O1 [Forskolin, forskolin, reference compound]
Relative increase in tyrosinase protein (tyrosinase [1]): 34 fold
Pigmentation score (B16 cells): 3
% tyrosinase activity relative to untreated control (tyrosinase [2]): 202.35%

NCCNCCN [Diethylenetriamine]
inhibition at 10 µg/mL [3, 5]: 36.6%
inhibition at 100 µg/mL [3, 6]: 51.7%
inhibition at 10 µg/mL (IFN (interferon-gamma); [5]): -1.2%
inhibition at 100 µg/mL (IFN (interferon-gamma); [6]): -35%
inhibition at 10 µg/mL [4, 5]: 9.9%
inhibition at 100 µg/mL [4, 6]: 3.3%
inhibition at 10 µg/mL (IL-2 (Interleukin-2); [5]): 4.7%
inhibition at 100 µg/mL (IL-2 (Interleukin-2); [6]): -19.5%

OCCN(CCO)CCN(CCO)CCO [THEED, N, N, N′, N′-Tetrakis(2-hydroxyethyl)ethylene diamine]
inhibition at 10 µg/mL ([3]; 48 h): 16.6%
inhibition at 100 µg/mL ([3]; 48 h): 23%
inhibition at 10 µg/mL (IFN (interferon-gamma); 48 h): 23.7%
inhibition at 100 µg/mL (IFN (interferon-gamma); 48 h): 49.5%
inhibition at 10 µg/mL ([4]; 48 h): 35.8%
inhibition at 100 µg/mL ([4]; 48 h): 44.5%
inhibition at 10 µg/mL (IL-2 (Interleukin-2); 48 h): 27.7%
inhibition at 100 µg/mL (IL-2 (Interleukin-2); 48 h): 61.8%

CN(C)CCN(C)C [TEMED, N, N, N′, N′-tetramethylethylene diamine]
inhibition at 10 µg/mL ([3]; 48 h): 47.4%
inhibition at 100 µg/mL ([3]; 48 h): 53.1%
inhibition at 10 µg/mL (IFN (interferon-gamma); 48 h): 36.9%
inhibition at 100 µg/mL (IFN (interferon-gamma); 48 h): 58.6%
inhibition at 10 µg/mL ([4]; 48 h): 33.6%
inhibition at 100 µg/mL ([4]; 48 h): 41.8%
inhibition at 10 µg/mL (IL-2 (Interleukin-2); 48 h): 6.6%
inhibition at 100 µg/mL (IL-2 (Interleukin-2); 48 h): 42.9%

CC(C)NCCN(CCNC(C)C)CCNC(C)C [Tris[2-(isopropylamino)ethyl]amine, reference compound]
inhibition at 10 µg/mL [3, 5]: -26.4%
inhibition at 100 µg/mL [3, 6]: -52.8%
inhibition at 10 µg/mL (IFN (interferon-gamma); [5]): 20.3%
inhibition at 100 µg/mL (IFN (interferon-gamma); [6]): 12.5%
inhibition at 10 µg/mL [4, 5]: -10.7%
inhibition at 100 µg/mL [4, 6]: -15.3%
inhibition at 10 µg/mL (IL-2 (Interleukin-2); [5]): -7.7%
inhibition at 100 µg/mL (IL-2 (Interleukin-2); [6]): 2.3%
